Data taken from patent publication US9980943B2, “Methods of treating muscular dystrophy” (BOARD OF REGENTS OF THE NEVADA SYSTEM OF HIGHER EDUCATION, …, priority 2013, dated 2018).

Tests used:
Format in all cases: cell-based, mouse
[1] = tested on: α7 integrin (LacZ reporter in α7βgal+/− myoblasts); test: Myoblast α7+/LacZ integrin FDG assay (Burkin assay in myoblasts, 96-well); details: SU9516 analogs, 96-well, N=3-6
[2] = tested on: β-galactosidase in CMV-LacZ C2C12 myoblasts; test: CMV-LacZ secondary screen in C2C12 myoblasts (β-Gal stabilizing assay); details: SU9516 analogs, C2C12 CMV-LacZ, N=2
Method in brief: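 Dose-response runs at 0.5–40 μM (0.5, 1, 5, 10, 20, 40 μM; N=2 per point) used a clonal C2C12 line carrying CMV-LacZ. Cells were assayed as myoblasts or as differentiated myotubes, and β-galactosidase levels were read with the FDG fluorogenic substrate.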

[3] = tested on: α7 integrin (LacZ reporter in α7+/LacZ myotubes); test: Myotube α7 integrin FDG assay (Burkin assay in myotubes, 96-well); details: SU9516 analogs, 96-well, N=3-6
[4] = tested on: β-galactosidase in CMV-LacZ C2C12 myotubes; test: CMV-LacZ secondary screen in C2C12 myotubes (β-Gal stabilizing assay); details: SU9516 analogs, C2C12 CMV-LacZ, N=2
Method in brief: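 CMV-LacZ C2C12 line (clonal, FDG-screened); myoblasts/myotubes dosed 0.5–40 μM (0.5, 1, 5, 10, 20, 40 μM); n=2 per point; β-gal stabilization read-out.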

Row | Compound | Burkin Assay in Myoblasts, value relative to DMSO ([1]; 0.5 uM) | Burkin Assay in Myoblasts, value relative to DMSO ([1]; 1 uM) | Burkin Assay in Myoblasts, value relative to DMSO ([1]; 5 uM) | Burkin Assay in Myoblasts, value relative to DMSO ([1]; 10 uM) | Burkin Assay in Myoblasts, value relative to DMSO ([1]; 20 uM) | Burkin Assay in Myoblasts, value relative to DMSO ([1]; 40 uM) | CMV-LACZ in Myoblasts, value relative to DMSO ([2]; 0.5 uM) | CMV-LACZ in Myoblasts, value relative to DMSO ([2]; 1 uM) | CMV-LACZ in Myoblasts, value relative to DMSO ([2]; 5 uM) | CMV-LACZ in Myoblasts, value relative to DMSO ([2]; 10 uM) | CMV-LACZ in Myoblasts, value relative to DMSO ([2]; 20 uM) | CMV-LACZ in Myoblasts, value relative to DMSO ([2]; 40 uM) | Burkin Assay in Myotubes, value relative to DMSO ([3]; 0.5 uM) | Burkin Assay in Myotubes, value relative to DMSO ([3]; 1 uM) | Burkin Assay in Myotubes, value relative to DMSO ([3]; 5 uM) | Burkin Assay in Myotubes, value relative to DMSO ([3]; 10 uM) | Burkin Assay in Myotubes, value relative to DMSO ([3]; 20 uM) | Burkin Assay in Myotubes, value relative to DMSO ([3]; 40 uM) | CMV-LACZ in Myotubes, value relative to DMSO ([4]; 0.5 uM) | CMV-LACZ in Myotubes, value relative to DMSO ([4]; 1 uM) | also measured
1 | O=C1Nc2ccccc2/C1=C/c1cnc(-c2ccccc2)[nH]1 [MLS000834756-01] | 1.056 | 1.098 | 1.227 | 1.172 | 1.064 | 1.081 | 0.8709 | 1.0422 | 1.2652 | 1.0917 | 0.8022 | 1.1889 | 1.079 | 1.189 | 1.095 | 0.9214 | 0.9495 | 0.9189 | 0.9859 | 1.0059 | CMV-LACZ in Myotubes, value relative to DMSO ([4]; 5 uM): 1.1994; CMV-LACZ in Myotubes, value relative to DMSO ([4]; 10 uM): 1.1713; CMV-LACZ in Myotubes, value relative to DMSO ([4]; 20 uM): 2.0788; CMV-LACZ in Myotubes, value relative to DMSO ([4]; 40 uM): 2.2953
2 | Cc1ncc(/C=C2\C(=O)Nc3ccccc32)[nH]1 [MLS000834757-01] | 1.0102 | 1.003 | 1.125 | 0.9651 | 1.117 | 1.021 | 1.0367 | 0.9300 | 0.9101 | 1.0942 | 0.8115 | 1.1026 | 1.019 | 0.943 | 1.03 | 0.9537 | 0.9989 | 0.9464 | 1.0238 | 0.8695 | CMV-LACZ in Myotubes, value relative to DMSO ([4]; 5 uM): 1.0546; CMV-LACZ in Myotubes, value relative to DMSO ([4]; 10 uM): 1.1047; CMV-LACZ in Myotubes, value relative to DMSO ([4]; 20 uM): 1.0789; CMV-LACZ in Myotubes, value relative to DMSO ([4]; 40 uM): 1.3600
